This note sets out measurements from ChEMBL document CHEMBL3639125, “1,4-oxazepines as BACE1 and/or BACE2 inhibitors” (2014).

A word on the IC50: it is the concentration at which inhibition is half-maximal. A lower IC50 goes with higher potency.

One assay has as its target T1, Beta-secretase 2 (Homo sapiens, UniProt Q9Y5Z0).
T1 sequence (Q9Y5Z0 whole entry): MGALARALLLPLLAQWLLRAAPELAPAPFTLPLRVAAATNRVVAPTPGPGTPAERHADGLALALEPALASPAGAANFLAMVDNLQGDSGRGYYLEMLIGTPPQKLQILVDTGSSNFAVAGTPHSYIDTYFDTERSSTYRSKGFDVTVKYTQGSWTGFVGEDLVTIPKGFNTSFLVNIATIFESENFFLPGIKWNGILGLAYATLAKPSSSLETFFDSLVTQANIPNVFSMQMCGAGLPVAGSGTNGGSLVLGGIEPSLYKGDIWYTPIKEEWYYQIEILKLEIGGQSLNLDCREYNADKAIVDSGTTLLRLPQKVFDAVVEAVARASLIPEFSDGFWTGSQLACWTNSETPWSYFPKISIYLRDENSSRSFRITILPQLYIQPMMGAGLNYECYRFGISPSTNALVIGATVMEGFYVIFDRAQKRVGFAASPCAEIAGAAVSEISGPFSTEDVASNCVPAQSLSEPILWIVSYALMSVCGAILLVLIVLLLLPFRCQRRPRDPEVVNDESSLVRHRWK
The experiment in a line: In summary, a peptide is designed that is cleaved by the protease. The peptide is labelled with dabcyl at the N terminus and Lucifer Yellow at the C-terminus, such that for an intact peptide the Lucifer Yellow fluorescence is quenched by the dabcyl. When the peptide is cut by BACE2, the quenching is removed and a fluorescent signal is generated.

The target in the next assay is Beta-secretase 1 (Homo sapiens, UniProt P56817). The experiment in a line: Immunofluorescence Resonance Energy Transfer (FRET) Assay: The FRET assay was performed essentially as described in Gruninger-Leitch et al., Journal of Biological Chemistry (2002) 277(7) 4687-93 (Substrate and inhibitor profile of BACE (beta-secretase) and comparison with other mammalian aspartic proteases). In summary, a peptide is designed that is cleaved by the protease. The peptide is labelled with dabcyl at the N terminus and Lucifer Yellow at the C-terminus, such that for an intact peptide the Lucifer Yellow fluorescence is quenched by the dabcyl. When the peptide is cut by BACE2, the quenching is removed and a fluorescent signal is generated. The assay was performed as described in Grueninger et al. 2002 at pH 4.5 using a substrate concentration of 5 μM. A FRET peptide based on the TMEM27 sequence was devised. dabcyl-QTLEFLKIPS-LucY (SEQ ID NO: 1). […] Conversely, BACE1 had insignificant activity against this peptide.
Chain of Beta-secretase 1 (P56817 whole entry): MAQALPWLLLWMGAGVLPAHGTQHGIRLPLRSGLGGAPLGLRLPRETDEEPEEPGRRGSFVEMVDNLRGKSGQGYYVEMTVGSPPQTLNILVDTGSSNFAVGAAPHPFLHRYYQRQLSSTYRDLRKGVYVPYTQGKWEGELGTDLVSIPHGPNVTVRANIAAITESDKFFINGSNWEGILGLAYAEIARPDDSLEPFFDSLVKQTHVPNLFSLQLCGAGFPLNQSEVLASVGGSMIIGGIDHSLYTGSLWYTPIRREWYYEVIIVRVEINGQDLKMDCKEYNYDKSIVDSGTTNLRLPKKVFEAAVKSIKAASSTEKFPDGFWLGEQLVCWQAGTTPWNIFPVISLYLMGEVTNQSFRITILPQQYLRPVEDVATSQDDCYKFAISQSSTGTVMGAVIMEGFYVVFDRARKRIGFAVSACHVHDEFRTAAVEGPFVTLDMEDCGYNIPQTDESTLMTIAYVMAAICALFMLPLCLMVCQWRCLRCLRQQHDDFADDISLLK

For `CC1(C)OCC(N)=N[C@](C)(c2cc(Nc3cncc(C(F)(F)F)c3)ccc2F)C1(F)F`, the IC50 worked out at 3.89 µM on Beta-secretase 2 and 1.9 µM on Beta-secretase 1.
